From patent publication US12559490B2, “Compositions and methods for modulating hair growth” (The Regents of the University of California, priority 2020, dated 2026) come the findings set out here.

The term IC50 denotes the concentration that inhibits the measured activity by half.

Series [1] is described as follows: Solubility testing in a polyethylene glycol/transcutol/ethanol/DMSO formulation. In kind it is physicochemical. To be noted: for Conc.: concentration tested in formulation of about 25-75% polyethylene glycol, 5-20% transcutol, 5-50% ethanol, 5-10% DMSO, room temperature, Notes column says whether it dissolved; for Notes (dissolved / failed to dissolve): stirred 1 hour, overnight or 24 hours at room temperature. The source says: Results are detailed in the table below.

The target in series [2] is T1, Mitochondrial Pyruvate Carrier (MPC) (Homo sapiens, UniProt O95563+Q9Y5U8).
T1 sequence (Q9Y5U8 1-109): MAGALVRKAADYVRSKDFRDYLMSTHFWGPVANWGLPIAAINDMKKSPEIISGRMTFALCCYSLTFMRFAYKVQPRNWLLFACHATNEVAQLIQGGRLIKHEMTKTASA
T1 sequence (O95563 1-127): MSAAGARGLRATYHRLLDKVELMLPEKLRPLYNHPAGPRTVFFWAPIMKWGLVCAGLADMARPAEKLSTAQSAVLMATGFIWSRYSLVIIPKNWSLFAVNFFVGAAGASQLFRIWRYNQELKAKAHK
The series is described as follows: Pyruvate-driven respiration (OCR, XF96) in permeabilized HepG2 cells to test MPC. In kind it is cell-based. Conditions: pyruvate/malate substrate, nine-point dose-response, 1 or 3 replicates.

In series [1], `N#C/C(=C\c1cn(Cc2cccc(F)c2)c2ncccc12)C(=O)O` [PP36, (E)-2-cyano-3-(1-(3-fluorobenzyl)-1H-pyrrolo[2,3-b]pyridin-3-yl)acrylic acid] yielded a Conc. of 0.1% w/w. In series [2], this compound yielded an IC50 of 26 nM.
Take `N#C/C(=C\c1cn(Cc2cccc(C(F)(F)F)c2)c2ncccc12)C(=O)O` [PP27, (E)-2-Cyano-3-(1-(3-(trifluoromethyl)benzyl)-1H-pyrrolo[2,3-b]pyridin-3-yl) acrylic acid]: in series [1], the Conc. came out at 0.15% w/w and the “Notes (dissolved / failed to dissolve)” value was “Stirred 1 hour at room temperature; dissolved”. Moreover, in series [2], the midpoint of inhibition, the IC50, lay at 36.3 nM.
The matching figures for `N#C/C(=C\c1cn(Cc2cc(C(F)(F)F)cc(C(F)(F)F)c2)c2ncccc12)C(=O)O` [JXL069, reference compound]: 0.027% w/w, “Stirred overnight at room temperature; dissolved” and 51.2 nM.
In series [2], `N#C/C(=C\c1cn(Cc2ccc(F)cc2)c2ncccc12)C(=O)O` [PP37, (E)-2-cyano-3-(1-(4-fluorobenzyl)-1H-pyrrolo[2,3-b]pyridin-3-yl)acrylic acid] returned a half-inhibitory concentration (IC50) of 109 nM.
Same read-out and setting: next, `N#C/C(=C\c1cn(Cc2ccncc2)c2ncccc12)C(=O)O` [PP40, Sodium (E)-2-cyano-3-(1-(pyridin-4-ylmethyl)-1H-pyrrolo[2,3-b]pyridin-3-yl)acrylate]: 411 nM; `N#C/C(=C\c1cn(Cc2ccccn2)c2ncccc12)C(=O)O` [PP38, Sodium (E)-2-cyano-3-(1-(pyridin-2-ylmethyl)-1H-pyrrolo[2,3-b]pyridin-3-yl)acrylate]: 183 nM.
With `N#C/C(=C\c1cn(Cc2ccccc2F)c2ncccc12)C(=O)O` [PP35, (E)-2-cyano-3-(1-(2-fluorobenzyl)-1H-pyrrolo[2,3-b]pyridin-3-yl)acrylic acid], in series [1], the Conc. was 0.1% w/w. Besides, half-maximal inhibition in series [2] (IC50) required 34 nM.
`N#C/C(=C\c1cn(Cc2cccnc2)c2ncccc12)C(=O)O` [PP39, Sodium (E)-2-cyano-3-(1-(pyridin-3-ylmethyl)-1H-pyrrolo[2,3-b]pyridin-3-yl)acrylate]: the IC50 in series [2] was 262 nM.
Consider `N#C/C(=C\c1cn(Cc2ccccc2C(F)(F)F)c2ncccc12)C(=O)O` [PP26, (E)-2-Cyano-3-(1-(2-(trifluoromethyl)benzyl)-1H-pyrrolo[2,3-b]pyridin-3-yl) acrylic acid], for which, in series [1], the Conc. came out at 0.1% w/w and the “Notes (dissolved / failed to dissolve)” value was “Stirred 1 hour at room temperature; dissolved”. In series [2], this compound displayed an IC50 of 54 nM.
